This note sets out measurements from patent publication US4000259A, “Cyclic dodecapeptide analogs of somatostatin and intermediates” (American Home Products Corporation, priority 1975, dated 1976).

Experiment [1] concerns growth hormone. The experiment is described as follows: In vivo effect on growth hormone levels in nembutal-treated rats, radioimmunoassay. Particulars: nembutal 50 mg/kg i.p., compound subcutaneously 3100 μg/kg, blood 15 minutes after injection, control 296 ± 25. On the procedure: (§1) The effect on glucagon, growth hormone and insulin levels of the compound of Example 7 was determined by injecting rats weighing about 200-240 g first with nembutal intraperitoneally at a dose of 50 mg/kg then after 5 minutes injecting the rats subcutaneously with a solution of the compound of Example 7 in saline at a dose of 3.1 mg/kg per rat. Blood samples are taken 15 minutes after injection with the compound of Example 7. The glucagon, growth hormone and insulin levels were determined by radioimmunoassay.

Experiment [2] has as its system glucagon. Particulars: rats, nembutal 50 mg/kg i.p., compound subcutaneously 3100 μg/kg, blood 15 minutes after injection; control 10.5 ± 2. On the procedure: as §1
For experiment [3], the system named is insulin. The experiment is described as follows: In vivo effect on insulin levels in nembutal-treated rats, radioimmunoassay. Particulars: nembutal 50 mg/kg i.p., compound subcutaneously 3100 μg/kg, blood 15 minutes after injection, control 171 ± 4. On the procedure:
as §1

In experiment [1], “L-Lysyl-L-lysyl-L-asparaginyl-L-phenylalanyl-L-phenylalanyl-L-tryptophyl-L-lysyl-L-threonyl-L-phenylalanyl-L-threonyl-L-seryl-L-aspartic acid cyclic (12β→1ε)-peptide, triacetate [Example 7]” returned a GH of 227 ± 32 ng/kg. The same substance came in with a Glucagon in experiment [2] of 3.3 pg/mL. Besides, the Insulin in experiment [3] amounted to 182 ± 16 μU/ml.
